Active and inactive are the calls of the source. No cut-off for these calls is given here.
Columns and labels:
PC-3 [1] = assay: Antiproliferative activity against human PC-3 cells at 5 uM incubated for 48 hrs by MTT assay relative to control; type: functional
K562 [2] = assay: Antiproliferative activity against human K562 cells at 5 uM incubated for 48 hrs by MTT assay relative to control; type: functional
A549 [3] = assay: Antiproliferative activity against human A549 cells at 5 uM incubated for 48 hrs by MTT assay relative to control; type: functional
HeLa [4] = assay: Antiproliferative activity against human HeLa cells at 5 uM incubated for 48 hrs by MTT assay relative to control; type: functional
[5] = Antiproliferative activity against HEK293T cells at 5 uM incubated for 48 hrs by MTT assay relative to control; type: toxicity, cell-based, HEK-293T; conditions: human
PC-3 [6] = assay: Antiproliferative activity against human PC-3 cells incubated for 48 hrs by MTT assay; type: functional, cell-based; conditions: for IC50: PC-3, 48 h; for IC20: PC-3, time 48 hrs
K562 [7] = assay: Antiproliferative activity against human K562 cells incubated for 48 hrs by MTT assay; type: functional, cell-based; conditions: K562, 48 h
HeLa [8] = assay: Antiproliferative activity against human HeLa cells incubated for 48 hrs by MTT assay; type: functional, cell-based
A549 [9] = assay: Antiproliferative activity against human A549 cells incubated for 48 hrs by MTT assay; type: functional, cell-based; conditions: A549, 48 h
[10] = Antiproliferative activity against HEK293T cells incubated for 48 hrs by MTT assay; type: toxicity, cell-based, HEK-293T; conditions: human
PC-3 [11] = assay: Antiproliferative activity against human PC-3 overexpressing WRN cells incubated for 48 hrs by MTT assay; type: functional
PC-3 [12] = assay: Inhibition of cell survival in human PC-3 cells at 1000 nM pretreated for 48 hrs followed by fresh media replacement without compound measured after 2 weeks by colony formation assay; type: functional, cell-based

Compound | inhibition at 5 µM (PC-3 [1]) [%] | inhibition at 5 µM (K562 [2]) [%] | inhibition at 5 µM (A549 [3]) [%] | inhibition at 5 µM (HeLa [4]) [%] | inhibition at 48 h, 5 µM [5] [%] | IC50 (PC-3 [6]) [µM] | IC20 (PC-3 [6]) [nM] | IC50 (K562 [7]) [nM] | IC50 (HeLa [8]) [µM] | IC50 (A549 [9]) [µM] | IC50 at 48 h [10] [nM] | IC20 (PC-3 [11]) [nM] | inhibition (PC-3 [12])
COc1cccc(C(F)(F)c2nc(N(C)c3ccc(OC)c(OC)c3)c3ccccc3n2)c1 | 62.7 | 65.5 | 53.2 | 51.2 | 63.6 | > 10 | 981 | 50 | > 10 | > 10 | 1100 | 123 | Active
COc1ccc(Nc2nc([C@@H](N)C(C)C)nc3ccccc23)cc1 | -4.8 | 0.8 | 3.4 | 9.3 | 8.4 |  |  |  |  |  |  |  | 
C=CC(=O)Nc1cccc(Nc2nc(C(=O)c3ccccc3)nc3ccc(F)cc23)c1 | 9.6 | 8.9 | 7.9 | 7 | 4.8 |  |  |  |  |  |  |  | 
COc1cc(N(C)c2nc(C(=O)c3ccc(F)cc3)nc3ccccc23)ccc1C(=O)O | -8.9 | 6.4 | 5.1 | 12.3 | 5.3 |  |  |  |  |  |  |  | 
COc1cc(N2CCNCC2)ccc1Nc1nc(C(=O)c2ccc(F)cc2)nc2ccccc12 | 9 | -6.6 | -0.5 | 1.7 | 5.8 |  |  |  |  |  |  |  | 
COC(=O)c1ccc(Nc2nc(C(=O)c3ccccc3)nc3ccc(F)cc23)cc1 | 29.3 | 19.5 | 17.7 | 0.8 | 11.1 |  |  |  |  |  |  |  | 
COc1ccc(N(C)c2nc(C(F)(F)c3cccc(OC)c3)nc3ccccc23)cc1 | 57.6 | 61.3 | 52.7 | 47.8 | 56.6 | 5.6 | 250 | 300 | > 10 | > 10 | 2100 | 144 | 
COc1ccc(N(C)c2nc(C(=O)c3ccccc3)nc3ccc(F)cc23)cc1 | 40.9 | 24.1 | 25 | 37.8 | 39.3 |  |  |  |  |  |  |  | 
COC(=O)c1ccc(N(C)c2nc(C(=O)c3ccccc3)nc3ccc(F)cc23)cc1 | 39 | 25.9 | 46.1 | 16 | 37.6 |  |  |  |  |  |  |  | 
Cc1ccc(Nc2nc(C(=O)c3ccc(F)cc3)nc3ccccc23)c(C(=O)O)c1 | -4.2 | 6.5 | 29.9 | 42.7 | 20.6 |  |  |  |  |  |  |  | 
CC(C)[C@H](N)c1nc(Nc2ccc(OC(F)(F)F)cc2)c2ccccc2n1 | 13.3 | 7.2 | 11.4 | 2.6 | 4.4 |  |  |  |  |  |  |  | 
O=C(c1ccc(F)cc1)c1nc(Nc2ccc(N3CCNCC3)c(F)c2)c2ccccc2n1 | -9.6 | -10.7 | 4.1 | 11.3 | 9.5 |  |  |  |  |  |  |  | 
CC(C)[C@H](N)c1nc(Nc2ccc(N3CCOCC3)cc2)c2ccccc2n1 | 2.1 | 8.2 | -0.7 | 6.5 | 1.2 |  |  |  |  |  |  |  | 
COC(=O)c1ccc(Nc2nc(C(=O)c3cccc(OC)c3)nc3ccccc23)cc1OC | 48.3 | 9.5 | 40.1 | 37.7 | 14.5 |  |  |  |  |  |  |  | 
COc1ccc(N(C)c2nc(C(=O)c3cccc(OC)c3)nc3ccccc23)cc1 | 58.1 | 61.5 | 52 | 51 | 59.6 | 6.6 | 975 | 9300 | > 10 | > 10 | 6400 | 1070 | 
COc1cccc(C(=O)c2nc(Nc3ccc(OC)c(OC)c3)c3ccccc3n2)c1 | -10.2 | 8.7 | 47.4 | 41.1 | 5.5 |  |  |  |  |  |  |  | 
COc1ccc(Nc2nc(C(=O)c3ccccc3)nc3ccc(F)cc23)cc1 | 3.4 | 0.5 | 2.9 | 2 | 2.4 |  |  |  |  |  |  |  | 
